Laboratory results taken from ChEMBL document CHEMBL1201862, “PubChem BioAssay data set” (2004).
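Cultured in 96-well plates, cells were exposed to test compound for 48 hours across five concentrations. GI50 marks 50% less growth.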 Active and inactive are the calls of the source. Cut-off read from the data, not from the text of the source: active = GI50 up to about 1.1 µM and inactive = higher.

Columns and labels:
Experiment in all cases: DTP human tumour cell line panel, 48 h
[1] = system: ACHN
[2] = system: HCT-116
[3] = system: K562
[4] = system: LOX IMVI
[5] = system: M14
[6] = system: MOLT-4
[7] = system: Malme-3M
[8] = system: NCI-H23
[9] = system: OVCAR-3
[10] = system: SF-295
[11] = system: SK-MEL-28
[12] = system: SNB-19
[13] = system: SNB-75
[14] = system: SR
[15] = system: UACC-62
[16] = system: UO-31
[17] = system: DU-145
[18] = system: NCI/ADR-RES
[19] = system: PC-3

Measured: GI50

CCOc1ccc(OP2(=O)NC(=O)C=C(C)N2)cc1 (stereo unspecified)
inactive: [1] 90.8 µM | [2] > 100 µM | [3] > 100 µM | [4] > 100 µM | [5] > 100 µM | [6] > 100 µM | [7] > 100 µM | [8] > 100 µM | [9] > 100 µM | [10] > 100 µM | [11] > 100 µM | [12] > 100 µM | [13] > 100 µM | [14] 48.4 µM | [15] > 100 µM | [16] > 100 µM

CC12CC3CC(C)(C1)CC(N=[N+]=[N-])(C3)C2
inactive: [1] > 100 µM | [2] > 100 µM | [3] > 100 µM | [4] > 100 µM | [5] > 100 µM | [6] > 100 µM | [7] > 100 µM | [8] > 100 µM | [9] > 100 µM | [10] > 100 µM | [11] > 100 µM | [12] > 100 µM | [13] > 100 µM | [14] > 100 µM | [15] > 100 µM | [16] > 100 µM

O=c1oc2cc(O)ccc2c2[nH]c3cc(O)ccc3c12
inactive: [1] 22.7 µM | [2] 17.4 µM | [3] 45.9 µM | [4] 18.5 µM | [5] 36.4 µM | [6] 34 µM | [7] 32.6 µM | [8] 24.5 µM | [9] 20.7 µM | [10] 66.8 µM | [11] 31.7 µM | [12] 18.6 µM | [13] 16.3 µM | [14] 21.2 µM | [15] 15.5 µM | [16] 26.2 µM

C[N+](C)(C)CC1CCCC(C[N+](C)(C)C)C1O (stereo unspecified)
inactive: [1] > 100 µM | [2] > 100 µM | [3] > 100 µM | [4] > 100 µM | [5] > 100 µM | [6] > 100 µM | [7] > 100 µM | [8] > 100 µM | [9] > 100 µM | [10] > 100 µM | [11] > 100 µM | [13] > 100 µM | [14] > 100 µM | [15] > 100 µM | [16] > 100 µM

C[C@@]1(CBr)C[C@@](C)(/C=C/Cl)[C@@H](Cl)C[C@H]1Cl
inactive: [1] 12.7 µM | [2] 7.03 µM | [3] 4.74 µM | [4] 11.5 µM | [5] 15.5 µM | [6] 4.03 µM | [7] 16.4 µM | [8] 13.3 µM | [9] 10.8 µM | [10] 13.8 µM | [11] 17.5 µM | [12] 13.5 µM | [13] 16.1 µM | [14] 1.9 µM | [15] 15.5 µM | [16] 15.6 µM

COC(=O)N/N=c1\cc(C(=O)Nc2ccc(C)c(C)c2)oc2cc(O)ccc12
inactive: [1] > 100 µM | [2] > 100 µM | [3] > 100 µM | [4] > 100 µM | [5] > 100 µM | [6] > 100 µM | [7] > 100 µM | [8] > 100 µM | [9] > 100 µM | [10] > 100 µM | [11] > 100 µM | [12] > 100 µM | [13] > 100 µM | [14] > 100 µM | [15] > 100 µM | [16] > 100 µM

COc1cc2c(cc1OC)C1(c3ccc(Cl)cc3)ON=C(c3ccccc3)N1CS2 (stereo unspecified)
inactive: [1] 91.8 µM | [2] 6.37 µM | [3] 75.3 µM | [4] 30.1 µM | [5] 73.8 µM | [6] 11 µM | [7] > 100 µM | [8] > 100 µM | [9] > 100 µM | [10] 95.3 µM | [11] > 100 µM | [12] > 100 µM | [13] > 100 µM | [14] 7.05 µM | [15] 36 µM | [16] 27.1 µM

NCP(=O)(O)OCC(=O)O
inactive: [1] > 100 µM | [2] > 100 µM | [3] > 100 µM | [4] > 100 µM | [5] > 100 µM | [6] > 100 µM | [7] > 100 µM | [8] > 100 µM | [9] > 100 µM | [10] > 100 µM | [11] > 100 µM | [12] > 100 µM | [13] > 100 µM | [14] > 100 µM | [15] > 100 µM | [16] > 100 µM

CN1CCOC(C(NC(=O)c2ccccc2)c2ccccc2)C1=O (stereo unspecified)
inactive: [1] > 100 µM | [2] > 100 µM | [3] > 100 µM | [4] > 100 µM | [5] > 100 µM | [6] > 100 µM | [7] > 100 µM | [8] > 100 µM | [9] > 100 µM | [10] > 100 µM | [11] > 100 µM | [12] > 100 µM | [13] 24.3 µM | [14] > 100 µM | [15] > 100 µM | [16] > 100 µM

O=C1C(Cl)=C(Cl)C(=O)N1c1ccccc1Cl
inactive: [1] > 100 µM | [2] > 100 µM | [3] 28.9 µM | [4] > 100 µM | [5] > 75.9 µM | [6] 30.9 µM | [7] > 52.5 µM | [8] > 85.9 µM | [9] 99.3 µM | [10] > 100 µM | [11] > 100 µM | [12] > 100 µM | [13] > 100 µM | [14] 14.7 µM | [15] > 100 µM | [16] > 100 µM

NC(=O)C(=O)C(c1ccccc1)S(=O)(=O)Cc1ccccc1 (stereo unspecified)
inactive: [1] > 100 µM | [17] > 100 µM | [2] > 100 µM | [3] > 100 µM | [4] > 100 µM | [5] > 100 µM | [6] 16.5 µM | [8] > 100 µM | [18] > 100 µM | [9] > 100 µM | [19] > 100 µM | [10] > 100 µM | [11] > 100 µM | [12] > 100 µM | [13] > 82 µM | [14] > 100 µM | [15] > 100 µM | [16] > 100 µM

O=[N+]([O-])c1cc(/C=N\NS(=O)(=O)c2ccc(Cl)cc2)c(O)c([N+](=O)[O-])c1
inactive: [1] 49.8 µM | [2] 30.1 µM | [3] 31.1 µM | [4] 37.8 µM | [5] 32.4 µM | [6] 29.2 µM | [7] 36.6 µM | [8] 22.2 µM | [9] 24.4 µM | [10] 32.9 µM | [11] 93.3 µM | [12] 20.9 µM | [13] 24.9 µM | [14] 21 µM | [15] 32.4 µM | [16] 71.4 µM

COc1ccc(/C=C2\CNC/C(=C\c3ccc(OC)cc3)C2=O)cc1
inactive: [1] > 100 µM | [2] 3.24 µM | [3] 14.7 µM | [4] 4.22 µM | [5] > 100 µM | [6] 15.8 µM | [7] > 100 µM | [8] 15.8 µM | [9] 35 µM | [10] 31.1 µM | [11] 87.9 µM | [12] 80.2 µM | [13] 30.4 µM | [14] 24.8 µM | [15] 49.4 µM | [16] > 100 µM

CN(C)CC1CCCC(CN(C)C)C1OC(=O)c1ccccc1 (stereo unspecified)
inactive: [1] > 100 µM | [2] > 100 µM | [3] > 100 µM | [4] > 100 µM | [5] > 100 µM | [6] > 100 µM | [7] > 100 µM | [8] > 100 µM | [9] > 100 µM | [10] > 100 µM | [11] > 100 µM | [13] > 100 µM | [14] > 100 µM | [15] > 100 µM | [16] > 100 µM

O=C(NC1CCCCCC1)C1C(=O)N(C2CCCCCC2)C(=O)/C1=N\O (stereo unspecified)
inactive: [1] 35.2 µM | [2] 17.3 µM | [3] 39.1 µM | [4] 35.6 µM | [5] 32.1 µM | [6] 21.5 µM | [7] 24.4 µM | [8] 26.5 µM | [9] 17.6 µM | [10] 36.6 µM | [11] 30 µM | [12] 35.2 µM | [13] 26.6 µM | [14] 23.8 µM | [15] 21 µM | [16] 28.4 µM

CN1C(c2ccccc2)CC(=NO)CC1c1ccccc1 (stereo unspecified)
inactive: [1] 41.4 µM | [2] 19.3 µM | [3] 29.4 µM | [4] 19.7 µM | [5] 43 µM | [6] 19.2 µM | [7] 34.8 µM | [8] 89.1 µM | [9] 39.9 µM | [10] 41.5 µM | [11] 91.2 µM | [12] > 100 µM | [13] 59.7 µM | [14] 26.9 µM | [15] 39.8 µM | [16] 26.4 µM

Cc1cccc(N2CCN(S(=O)(=O)c3ccc(Cl)cc3)C2=N)c1C
inactive: [1] > 100 µM | [17] 93.3 µM | [2] > 100 µM | [3] 33.1 µM | [5] > 100 µM | [6] 35 µM | [8] 96.4 µM | [18] > 100 µM | [10] 77.4 µM | [11] 38.6 µM | [12] > 100 µM | [13] > 100 µM | [14] 18.1 µM | [15] 38.4 µM | [16] 47.9 µM
